From US12653774B2, “Topical compositions and methods for using same” (MARY KAY INC., priority 2022, dated 2026)

Molecular target: T1, TRPV-1 (Rattus norvegicus, UniProt O35433)
T1 construct: host or cells: PC 12 cells
Assay: Capsaicin induced TRPV-1 mediated calcium flux assay (Fura-2AM) in PC 12 cells
Assay type: cell-based
Method: (§1) Briefly, Ca^2+ influx was used as a measure of TRPV-1 activity. PC 12 cells (ATCC CRL-1721) were pre-incubated for 4 hours at 37° C. with the respective noted compounds (e.g., plankton extract (test), or capsazepine (positive control)). Following pre-incubation, treatment media was removed and cells were incubated with 100 μl of 0.67 μM Fura-2-acetoxymethyl ester ((Fura-2AM), a high affinity, intracellular calcium indicator that is ratiometric and UV light—excitable) for 1 hour at 37° C. After incubation, cells were treated with 200 μM of capsaicin to induce TRPV-1 mediated Ca^2+ flux response and fluorescence readings were taken every 7 seconds for 10 minutes at 360/460 nm. Data was normalized to controls, plotted as shown, and area under the curve (AUC) values were determined (see Table 2).
as §1, with “test compounds.” for “noted compounds (e.g., plankton extract (test), or capsazepine (positive control)).”, “Fura-2AM” for “Fura-2-acetoxymethyl ester ((Fura-2AM), a high affinity, intracellular calcium indicator that is ratiometric and UV light—excitable)”, “AUC” for “area under the curve (AUC)”
Ingredient samples were analyzed for their ability to inhibit calcium flux production in PC 12 cells (ATCC CRL-1721). PC 12 cells were maintained and passaged according to the manufacturer's recommended guidelines. For experiments, 1×10^5 cells/well were plated in 96 well black flat bottom plates. Fura-2-Acetoxymethyl ester (Fura-2AM) calcium detection assay kit (Cayman Chemical #14591) was used to detect calcium in the cells post treatment. Capsaicin (Sigma #M202) was used to trigger a response, and capsazepine (Sigma #C191) was used as a positive control. In brief, Ca2^+ influx was used as a measure of TRPV-1 activity. PC 12 cells (ATCC CRL-1721) were pre-incubated for 4 hours at 37° C. with the respective test compounds. Following pre-incubation, treatment media was removed and cells were incubated with 100 μl of 0.67 μM Fura-2AM for 1 hour at 37° C. After incubation, cells were treated with 200μM of capsaicin to induce TRPV-1 mediated Ca^2+ flux response and fluorescence readings were taken every 7 seconds for 10 minutes at 360/460 nm. Following the test period, buffer was removed and 100 μl diluted MTS reagent was added to each well. Cells were incubated for 15 to 30 minutes at 37° C. 5% CO2, and plates were then read at 490 nm. Cell viability was assessed prior to analyzing for calcium flux.
Fluorescence test data was normalized to controls to generate area under the curve (AUC) values. For each control and test, fluorescence arbitrary units (AU) were normalized to controls for timepoints 0, and 0.5-9 minutes. The normalized data was plotted on an XY graph using GraphPad Prism software to generate a calcium flux curve, with time on the X axis, and normalized AU on the Y axis. The AUC was then calculated for the untreated control, and net AUC was determined for each test and control condition.

[1] = 400 μM, pre-incubation 4 hours, then 200 μM capsaicin, positive control

T1 sequence (O35433 whole entry): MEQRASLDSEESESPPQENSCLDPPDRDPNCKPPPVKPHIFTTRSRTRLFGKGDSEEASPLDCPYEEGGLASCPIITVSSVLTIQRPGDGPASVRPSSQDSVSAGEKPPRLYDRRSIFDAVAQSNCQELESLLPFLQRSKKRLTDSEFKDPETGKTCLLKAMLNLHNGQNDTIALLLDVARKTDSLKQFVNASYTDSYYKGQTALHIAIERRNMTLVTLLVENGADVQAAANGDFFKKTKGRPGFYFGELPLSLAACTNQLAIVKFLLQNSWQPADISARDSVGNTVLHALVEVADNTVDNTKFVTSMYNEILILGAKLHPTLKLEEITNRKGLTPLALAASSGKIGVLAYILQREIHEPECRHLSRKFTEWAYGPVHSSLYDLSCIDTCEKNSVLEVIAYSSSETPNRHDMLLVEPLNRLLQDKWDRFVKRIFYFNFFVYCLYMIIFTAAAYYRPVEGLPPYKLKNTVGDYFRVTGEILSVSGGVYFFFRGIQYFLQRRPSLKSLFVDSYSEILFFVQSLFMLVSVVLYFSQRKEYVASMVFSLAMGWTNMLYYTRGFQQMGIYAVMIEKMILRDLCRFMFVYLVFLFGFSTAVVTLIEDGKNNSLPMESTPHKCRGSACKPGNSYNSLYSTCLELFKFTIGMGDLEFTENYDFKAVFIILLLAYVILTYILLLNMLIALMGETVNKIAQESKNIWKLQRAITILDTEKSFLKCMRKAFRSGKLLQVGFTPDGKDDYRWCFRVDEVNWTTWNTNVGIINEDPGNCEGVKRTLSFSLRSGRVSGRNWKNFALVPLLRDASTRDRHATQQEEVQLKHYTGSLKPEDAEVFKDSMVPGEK

COc1cc(CNC(=O)CCCC/C=C/C(C)C)ccc1O [Capsaicin]
Delta compared to untreated (200 μM, net AUC vs untreated baseline 9.009, negative control): 0.944
AUC (200 μM, normalized Ca2+ flux curve, PC 12 cells, negative control): 9.953
Percentage activity compared to positive control (200 μM, relative to capsazepine 400 μM, negative control): −453.56%

Oc1cc2c(cc1O)CN(C(=S)NCCc1ccc(Cl)cc1)CCC2 [Capsazepine, capsazepine]
AUC [1]: 8.742
Delta compared to untreated [1]: −0.267
Percentage activity compared to positive control (400 μM, the positive control itself): NA (0) %
